{
  "source": "patent US8410337B2",
  "about": "“Plant tubby-like proteins” (Academia Sinica, priority 2003, dated 2013)",
  "molecules": {"B1": {"name": "AtTLP9: Arabidopsis TUBBY-like protein, polypeptide SEQ ID NO: 9 (protein, listed as Arabidopsis sp.)", "chain": "MTFRSLLQEMRSRPHRVVHAAASTANSSDPFSWSELPEELLREILIRVETVDGGDWPSRRNVVACAGVCRSWRILTKEIVAVPEFSSKLTFPISLKQSGPRDSLVQCFIKRNRNTQSYHLYLGLTTSLTDNGKFLLAASKLKRATCTDYIISLRSDDISKRSNAYLGRMRSNFLGTKFTVFDGSQTGAAKMQKSRSSNFIKVSPRVPQGSYPIAHISYELNVLGSRGPRRMRCIMDTIPMSIVESRGVVASTSISSFSSRSSPVFRSHSKPLRSNSASCSDSGNNLGDPPLVLSNKAPRWHEQLRCWCLNFHGRVTVASVKNFQLVAVSDCEAGQTSERIILQFGKVGKDMFTMDYGYPISAFQAFAICLSSFETRIACE"}},
  "key": {"Arabidopsis seeds": {"system": "Arabidopsis seeds", "assay": "Seed germination on media containing ABA", "assay_type": "in vivo, Arabidopsis thaliana", "settings": "1 μM ABA", "method": "(§1) All seeds of the above-described lines were surface sterilized with 70% ethanol for 30 s and then with 6% household bleach for 5 min before being washed five times with sterile water. For aseptic growth, they were plated on solid medium containing Murashige and Skoog salts (Invitrogen), vitamins (Duchefa), 0.7% phytoagar (Invitrogen), and 1% sucrose and transferred to a tissue culture room. For soil growth, seedlings were transferred into individual pots 8-10 days after germination and maintained in the growth chamber. Plants were grown at 22° C. under a 16-hr-light/8-hr-dark photoperiod aseptically or on soil.\nTo determine whether the transgenic plants display altered ABA responses, the above-described lines were germinated on media containing various concentrations of ABA. Seeds collected at the same or similar times were used. After surface-sterilization, sterile seeds were suspended in 0.15% agarose, and kept in the dark at 4° C. for 3 days to break residual dormancy. The seeds were then plated on agar plates in six replicates containing no ABA or 0.25, 0.5, 0.75, or 1.0 μM ABA in 12-cm plastic petri dishes. Each agar plate was divided into seven sections, and 50 seeds of WT and AtTLP9 transgenic seeds were plated on each section. A seed was regarded as germinated when the radicle protruded through the seed coat."}, "Arabidopsis seedlings": {"system": "Arabidopsis seedlings", "assay": "Seedling growth and greening on MS agar with ABA", "assay_type": "in vivo, Arabidopsis thaliana", "settings": "1 μM ABA and 1% sucrose", "method": "as §1\nIn contrast, under the same conditions, attlp9-1 and attlp9-2 plants continued to grow and about 45% of the seedlings continued to develop true leaves, although at slower rates than abi4-1 mutant does."}, "AtTLP7 gene expression": {"system": "AtTLP7 gene expression", "settings": "channel 2 treated vs channel 1 control; cited from earlier work"}, "AtTLP10 gene expression": {"system": "AtTLP10 gene expression", "settings": "channel 2 treated vs channel 1 control; cited from earlier work"}, "ASK1": {"target": "T1, ASK1 (Arabidopsis thaliana, UniProt Q39255)", "T1 construct": "fragment containing the entire coding region of ASK1 (At1g75950); expressed in transfected cells; host or cells: Saccharomyces cerevisiae strain YRG-2", "T1 sequence (Q39255 1-160)": "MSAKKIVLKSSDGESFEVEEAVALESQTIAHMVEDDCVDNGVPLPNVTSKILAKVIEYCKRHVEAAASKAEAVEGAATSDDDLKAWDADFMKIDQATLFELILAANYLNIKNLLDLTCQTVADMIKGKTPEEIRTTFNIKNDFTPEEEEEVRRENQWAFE", "T1 sequence (Q9SQU1 1-380 partner)": "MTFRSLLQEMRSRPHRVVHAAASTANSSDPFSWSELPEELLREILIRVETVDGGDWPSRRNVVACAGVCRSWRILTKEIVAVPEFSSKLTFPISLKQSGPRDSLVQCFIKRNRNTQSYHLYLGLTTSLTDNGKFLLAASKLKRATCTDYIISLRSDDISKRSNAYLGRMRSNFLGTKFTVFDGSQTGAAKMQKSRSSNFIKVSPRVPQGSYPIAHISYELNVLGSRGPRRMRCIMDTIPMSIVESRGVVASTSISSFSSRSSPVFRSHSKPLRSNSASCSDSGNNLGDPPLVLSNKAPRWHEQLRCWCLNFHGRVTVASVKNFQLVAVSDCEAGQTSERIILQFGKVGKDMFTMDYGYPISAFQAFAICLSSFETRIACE", "assay": "Yeast two-hybrid analysis", "assay_type": "binding", "settings": "AtTLP9 in pBD-GAL4 Cam, ASK1 in pAD-GAL4-2.1, yeast strain YRG-2", "from_the_text": "To test whether AtTLP could interact with ASK1, AtTLP9 was examined by the yeast two-hybrid analysis. Yeast two-hybrid vectors, pAD-GAL4-2.1 and pBD-GAL4 Cam (Stratagene, La Jolla, Calif.), were used for C-terminal GAL4 AD and BD fusion constructions, respectively. A 1.1-kb SalI-PstI fragment containing the entire coding region of AtTLP9 was cloned into the SalI-PstI site of the pBD-GAL4 Cam vector. A 480-bp EcoRI-PstI fragment containing the entire coding region of ASK1 (At1g75950) was cloned into the EcoRI-PstI site of the pAD-GAL4-2.1 vector. The yeast strain YRG-2 [MATa ura3-52 his3-200 ade2-101 lys2-801 trp1-901 leu2-3,112 ga14-542 ga180-538 LYS2::GAL1UAS-GAL1TATA-HIS3 URA3::(GAL43×17mer)-CYC1TATA-lacZ] was co-transformed with the two vectors. The Y2H analysis was performed according to the manufacturer's recommendations (Stratagene)."}},
  "data": [
    {"molecule": "CC1=CC(=O)CC(C)(C)[C@@]1(O)/C=C/C(C)=C\\C(=O)O", "note": "[ABA, Abscisic acid]", "values": [
      {"measurement": "germination rate", "setting": "Arabidopsis seeds; attlp9-1 and attlp9-2 mutant seeds", "value": "~50", "unit": "%"},
      {"measurement": "germination rate", "setting": "Arabidopsis seeds; sense lines seeds (35S::AtTLP9 overexpression)", "value": "less than 10%"},
      {"measurement": "seeds able to germinate", "setting": "Arabidopsis seeds; wild-type seeds", "value": "about 30%"},
      {"measurement": "seedlings showing developmental arrest", "setting": "Arabidopsis seedlings; 10-d-old seedlings of sense lines", "value": 90, "unit": "%"},
      {"measurement": "seedlings continuing to develop true leaves", "setting": "Arabidopsis seedlings; attlp9-1 and attlp9-2 plants", "value": "about 45%"}
    ]},
    {"molecule": "O=C(O)Cc1c[nH]c2ccccc12", "note": "[IAA]", "values": [
      {"measurement": "Ch2/Ch1 Normalized (Mean) AtTLP7", "setting": "AtTLP7 gene expression", "value": 2.21}
    ]},
    {"molecule": "O=C(O)Cc1cccc2ccccc12", "note": "[NAA]", "values": [
      {"measurement": "Ch2/Ch1 Normalized (Mean) AtTLP10", "setting": "AtTLP10 gene expression", "value": 2.22},
      {"measurement": "Ch2/Ch1 Normalized (Mean) AtTLP7", "setting": "AtTLP7 gene expression", "value": 0.46}
    ]},
    {"molecule": "B1", "values": [
      {"measurement": "interaction with ASK1", "setting": "ASK1", "value": "physically interacts with ASK1"}
    ]}
  ]
}
